What was measured:
[1] = system: MLL fusion gene (MLL-AF9) leukemia cells; experiment: Mouse acute myelogenous leukemia model with MLL fusion gene (MLL-AF9) introduced (Test Example 1); assay type: in vivo
Experimental: (§1) Hereinafter, Test examples 1 and 2 will be described. Test Example 1 and 2 were carried out with reference to J Clin Invest., 2013 Sep. 3, 123(9): 3876 to 3888; and Blood, 1 Sep. 2011, Volume 118, 2541 to 2550.
A mouse acute myelogenous leukemia (AML) model into which the MLL fusion gene (MLL-AF9) inducing cancer was introduced, was prepared. Specifically, bone marrow cells were collected from a C57BL/6-Ly5.1 mouse (Sankyo Labo Service Corporation, INC., hereinafter the same applies), and hematopoietic stem precursor cells were isolated using CD117 MicroBeads. MLL-AF9 marked with GFP (green fluorescent protein) was introduced into these cells using a virus. This MLL-AF9-introduced cells were transplanted to the same strain (C57BL/6) mouse (Japan SLC, Inc., hereinafter the same applies), and GFP-positive leukemia cells were collected from the mouse spleens that developed leukemia. These cells were subjected to second, third, and fourth transplantations, and after the fourth transplantation, MLL fusion gene (MLL-AF9) leukemia cells causing all the mice to develop leukemia in about 2 weeks were collected.
These MLL fusion gene (MLL-AF9) leukemia cells 1×10^6/mouse were injected into the C57BL/6 mouse from the tail vein. On day 4 after the day of injection, 0.5% methylcellulose suspension of 5-hydroxy-1H-imidazole-4-carboxamide-3/4 hydrate (medicine) was administered orally to the mouse once per day at 160 mg/kg (in terms of free base) on Monday (day 4), Wednesday (day 6), and Friday (day 8), and this administration was continued during the survival period of the mouse.

[2] = system: p53-deleted MLL fusion gene (MLL-AF9) leukemia cells; experiment: Mouse acute myelogenous leukemia model, MLL-AF9 leukemia cells with the p53 gene deleted (Test Example 2); assay type: in vivo
Experimental: as §1
In the case where the survival period was extended depending on the function of a p53 gene, there is a concern that clinical usefulness may be limited. For this reason, the MLL fusion gene (MLL-AF9) leukemia cells were prepared in the same manner as in Test Example 1 by using mice in which the p53 gene was deleted.

[3] = system: leukemia associated with MLL (MLL-ENL); details: FIG. 3 and FIG. 5 of Genes & development, Vol. 23, pp. 877 to 889, 2009; cited from earlier work

Question: Which “longest survival in medicine-administered group (FIG. 1)” value ([1]; 160 mg/kg orally Mon/Wed/Fri from day 4) does the source give for `NC(=O)c1nc[nH]c1O` [5-hydroxy-1H-imidazole-4-carboxamide-3/4 hydrate] here?
Answer: up to 40 days

Question: What about the “survival period of medicine-administered group (FIG. 1)” value ([1]; 160 mg/kg orally Mon/Wed/Fri from day 4, control mice all died in about 20 days) of the same molecule?
Answer: ≥ 30 days

Question: And the “survival period versus non-administered group” value ([1]; C57BL/6 mouse, 1x10^6 MLL-AF9 leukemia cells via tail vein, 160 mg/kg (free base) orally once per day Mon/Wed/Fri from day 4, log-rank test significant)?
Answer: significant extension of the survival period

Question: And the “proliferation of GFP+ cells in the peripheral blood (FIG. 2)” value ([1]; day 10 after injection of leukemia cells, Mann-Whitney's U test significant versus control)?
Answer: proliferation of GFP+ cells was suppressed

Question: What about the “longest survival in medicine-administered group (FIG. 3)” value [2] of the same molecule?
Answer: ≥ 40 days

Question: What about the “survival period of medicine-administered group (FIG. 3)” value ([2]; control mice died in less than 20 days) of the same molecule?
Answer: ≥ 20 days

Question: What about the “proliferation of GFP+ cells in the peripheral blood (FIG. 4)” value ([2]; day 19 after injection of leukemia cells) of the same molecule?
Answer: proliferation of GFP+ cells was suppressed

Question: And the “survival period versus non-administered group, p53-deleted leukemia cells” value ([2]; same manner as Test Example 1)?
Answer: extension of the survival period according to the present invention does not depend on the p53 gene

Question: With `Nc1ccn([C@@H]2O[C@H](CO)[C@@H](O)[C@@H]2O)c(=O)n1` [cytarabine] as the molecule, how does the “efficacy of existing chemotherapy in leukemia associated with MLL” value [3] read?
Answer: not effective

Question: With `COc1cccc2c1C(=O)c1c(O)c3c(c(O)c1C2=O)C[C@@](O)(C(=O)CO)C[C@@H]3O[C@H]1C[C@H](N)[C@H](O)[C@H](C)O1` [doxorubicin] as the molecule, how does the “efficacy of existing chemotherapy in leukemia associated with MLL” value [3] read?
Answer: not effective

Reference: patent US20190209528A1, “MEDICINAL DRUG, METHOD, USE, AND COMPOUND FOR PREVENTING OR CURING LEUKEMIA ASSOCIATED WITH MLL” (FUJIFILM Corporation, priority 2016, published 2019)
